The values that follow are results of earlier work, collected in patent US20230405095A1, “DOSING REGIMEN” (VIIV HEALTHCARE UK (NO. 7) LIMITED, priority 2022, published 2023).

The conditions of series [1]: after injection of hyaluronidase; cited from earlier work.
The conditions of series [2]: in vivo, sc; cited from earlier work.

In the case of hyaluronidase, the “time until permeability barrier is restored to pre-injection levels” value in series [1] is 24 to 48 h.

B1: rHuPH20: soluble hyaluronidase composition produced upon expression in a mammalian cell of nucleic acid encoding residues 36-482 of SEQ ID NO:1 (protein, listed as Homo sapiens)
chain: LNFRAPPVIPNVPFLWAWNAPSEFCLGKFDEPLDMSLFSFIGSPRINATGQGVTIFYVDRLGYYPYIDSITGVTVNGGIPQKISLQDHLDKAKKDITFYMPVDNLGMAVIDWEEWRPTWARNWKPKDVYKNRSIELVQQQNVQLSLTEATEKAKQEFEKAGKDFLVETIKLGKLLRPNHLWGYYLFPDCYNHHYKKPGYNGSCFNVEIKRNDDLSWLWNESTALYPSIYLNTQQSPVAATLYVRNRVREAIRVSKIPDAKSPLPVFAYTRIVFTDQVLKFLSQDELVYTFGETVALGASGIVIWGTLSIMRSMKSCLLLDNYMETILNPYIINVTLAAKMCSQVLCQEQGVCIRKNWNSSDYLHLNPDNFAIQLEKGGKFTVRGKPTLEDLEQFSEKFYCSCYSTLSCKEKADVKDTDAVDVCIADGVCIDAFLKPPMETEEPQIFY
modifications: precursor human PH20
In the case of B1, the “subcutaneous doses shown to be well tolerated” value in series [2] is on record as “up to 96,000 U”.
